The source of these data is patent US20200016152A1, “TREATMENT OF DISEASES” (Ampio Pharmaceuticals, Inc., priority 2010, published 2020).

For assay [1], the system named is human renal glomerular microvascular endothelial cells. Description: ECIS transendothelial electrical resistance (TER), glomerular endothelial cells. It is filed as cell-based. On the procedure: Assays were performed to determine the effect of DA-DKP on transendothelial electrical resistance (TER) of human renal glomerular microvascular endothelial cells (ACBRI 128, Cell Systems Corporation (exclusive distributor for Applied Cell Biology Research Institute), Kirkland, Wash.). Electrical resistance was measured using the electric cell-substrate impedance sensing (ECIS) system (ECISZθ, obtained from Applied Biophysics) with 8-well multiple electrode plates (8W10E). Each well of the plates was coated with 5 μg/cm^2 fibronectin in HBSS by adding the fibronectin in a volume of 100 μl per well and incubating the plates for 30 minutes in a 37° C. incubator with 5% CO2. The fibronectin solution was removed, and 400 μl of EGM-2 culture medium (Lonza) was added to each well. The plates were connected to the ECISZθ system and were electrically stabilized. The EGM-2 medium was aspirated and replaced with 200 μl of EGM-2 culture medium containing 100,000 cells per well. The plates were reconnected to the ECISZθ system and incubated for 24 hours in a 37° C. incubator with 5% CO2. The EGM-2 medium was aspirated and replaced with 400 μl of fresh EGM-2 culture medium per well. The plates were reconnected to the ECISZθ system and incubated for 6 hours in a 37° C. incubator with 5% CO2. Solutions of the test compounds in HBSS were prepared and placed in the incubator to equilibrate. The test compounds were then added to appropriate wells at the following final concentrations: DA-DKP (100 μM) (Sigma) and TNFα (1 ng/ml) (Sigma). ECIS (resistance) was monitored for 90 hours.

Assay [2] has as its system human retinal endothelial cells. Description: ECIS transendothelial electrical resistance (TER), retinal endothelial cells, 96-well plates. It counts as cell-based. As to the method: Assays were performed to determine the effect of DA-DKP on transendothelial electrical resistance (TER) of human renal glomerular microvascular endothelial cells (ACBRI 128, Cell Systems Corporation (exclusive distributor for Applied Cell Biology Research Institute), Kirkland, Wash.). Electrical resistance was measured using the electric cell-substrate impedance sensing (ECIS) system (ECISZθ, obtained from Applied Biophysics) with 8-well multiple electrode plates (8W10E). Each well of the plates was coated with 5 μg/cm^2 fibronectin in HBSS by adding the fibronectin in a volume of 100 μl per well and incubating the plates for 30 minutes in a 37° C. incubator with 5% CO2. The fibronectin solution was removed, and 400 μl of EGM-2 culture medium (Lonza) was added to each well. The plates were connected to the ECISZθ system and were electrically stabilized. […] ECIS (resistance) was monitored for 90 hours.
Assays were performed to determine the effect of DA-DKP on transendothelial electrical resistance (TER) of human retinal endothelial cells (ACBRI 181, Cell Systems Corporation (exclusive distributor for Applied Cell Biology Research Institute), Kirkland, Wash.). Electrical resistance was measured using the electric cell-substrate impedance sensing (ECIS) system (ECISZθ, obtained from Applied Biophysics) as described in Example 1, but using 96-well multiple electrode plates […].

Assay [3] has the same test system. Description: Actin stress fiber formation (rhodamine-phalloidin F-actin staining). It counts as cell-based. The settings on record: 15 minutes and 3 hours. On the procedure: Passage 12 human retinal endothelial cells (ACBRI 181, Cell Systems Corporation (exclusive distributor for Applied Cell Biology Research Institute), Kirkland, Wash.) were seeded into 16-chamber glass slides coated with 5 μg/cm^2 fibronectin at 5000 cells per well in a total volume of 200 μl of EGM-2 medium (Lonza). The slides were cultured in a 37° C. incubator with 5% CO2 for 48 hours with daily medium changes. Then, the test compounds (DA-DKP, S1P and TNFα), diluted in Hanks Balanced Salt Solution (HBSS; Lonza), were added to give the following final concentrations: DA-DKP (100 μM) (Sigma), TNFα (1 ng/ml) (Sigma), and S1P (1 μM) (Sigma). The slides were incubated with the test compounds for 15 minutes or 3 hours in a 37° C. incubator with 5% CO2. After this incubation, the medium was aspirated, and the cells were fixed using 3.6% formaldehyde in phosphate buffered saline (PBS) for ten minutes at room temperature. All wells were then washed two times with 100 μl PBS. The cells were permeabilized using a 0.1% Triton X-100 in PBS for 5 minutes. All wells were then washed two times with 100 μl PBS, and 50 μl of a 1:40 dilution of rhodamine-phalloidin (Invitrogen) in PBS was added to the cells to stain for F-actin and left on the cells for 20 minutes at room temperature. All wells were then washed two times with 100 μl PBS. Then 100 μl PBS was added to each well and the cells were observed and photographed using an inverted microscope using a rhodamine (ex530/em590) filter.

A further assay deals with RhoA. Description: Rho activation assay (GLISA) in retinal endothelial cells. It counts as cell-based, human. As to the method: This experiment was performed using a commercially-available Rho activation assay (GLISA) purchased from Cytoskeleton, Denver, Colo., following the manufacturer's protocol. Briefly, passage 8 or 12 human retinal endothelial cells (ACBRI 181, Applied Cell Biology Research Institute, Kirkland, Wash.) were cultured on fibronectin-coated (1 μg/cm^2) 6-well tissue culture plates using EGM-2 culture medium (Lonza) for 24 hours in a 37° C. incubator with 5% CO2 (30,000 cells/well in total volume of 3 ml). Then, the medium was aspirated and replaced with Ultraculture medium supplemented with 0.1% fetal bovine serum, L-glutamine, sodium pyruvate, penicillin/streptomycin and ITSS (insulin, transferrin sodium selenium) (all from Lonza) to serum starve the cells and reduce the background level of RhoA. The cells were cultured for 24 hours in a 37° C. incubator with 5% CO2. Test compounds diluted in HBSS were placed in the incubator to equilibrate before addition to the cells. Then, 150 μl of each test compound was added to the appropriate culture wells, and the plates were incubated in the incubator for an additional 15 minutes. Then, thrombin was added to appropriate wells. After 1 minute, the cells were washed one time with 1.5 ml phosphate buffered saline and were then lysed with 100 μl GLISA lysis buffer supplemented with protease inhibitors. The extracts were scraped, transferred to microcentrifuge tubes and transferred to ice to preserve the active form of RhoA. All extracts were then cleared of debris by spinning at 10,000 rpms for 2 minutes at 4° C. The supernatants were transferred to new tubes and placed back on ice. Aliquots of each extract were removed for the GLISA assay and for protein determinations. All protein concentrations were within 10%, and the extracts were used at the achieved concentrations (equates to 15 total protein per well). The GLISA assay was performed using the reagents supplied in the kit.

Setting [4] is: passage 8 cells, 100 μM + 0.1 U/ml thrombin.
The mark [5] stands for this setting: passage 8 cells, 100 μM, no thrombin.
Where [6] appears, read: passage 12 cells, 100 μM + 0.1 U/ml thrombin.
[7] abbreviates: passage 12 cells, 100 μM, no thrombin.

Entries after “also recorded” stand apart in the source; their conditions may differ.

As to `C[C@@H]1NC(=O)[C@H](CC(=O)O)NC1=O` [DA-DKP], the “effect on TNFα-induced drop in ECIS” value in assay [1] (100 μM DA-DKP with TNFα 1 ng/ml, not significant) is on record as “prevent some of the TNFα-induced drop in ECIS”. For the same compound, in assay [1] (100 μM alone), the “ECIS increase persisting after treatment” value was 35 h, the “start of ECIS increase after treatment” value is recorded as “about 5.0 hours” and the “time at which ECIS increase reached significance after treatment” value was determined as 12 h. The “ECIS (resistance) as compared to untreated cells” value in assay [1] (100 μM alone, glomerular endothelial cells, monitored 90 hours) is reported as “increase of ECIS”. Further, in assay [2] (100 μM), the “ECIS (TER) increase, comparison of doses” value is “greatest increase”. Besides, the “ECIS (TER)” value in assay [2] (doses 0.5 μM, 5.0 μM, 50 μM and 100) is “dose-dependent increase in ECIS (TER)”. In addition, the “effect on cortical rings of S1P” value in assay [3] (100 μM DA-DKP with S1P 1 μM) is reported as “enhance the cortical rings; also recorded: strengthen the protective effects of S1P”. For the same compound, in assay [3] (100 μM DA-DKP with TNFα 1 ng/ml), the “effect on stress fibers caused by TNFα” value is recorded as “decreased the stress fiber formation and/or the thickness of the fibers; also recorded: reversed the formation of stress fibers induced by TNFα”. Further, in the assay with RhoA (setting [4]), the “Mean OD (active RhoA)” value was 0.377 and the “Percent Inhibition vs. Thrombin” value is 40.04%. Also, in the assay with RhoA (setting [5]), the “Mean OD (active RhoA)” value was 0.110 and the “Percent Inhibition vs. Untreated Control” value is listed as −7.88%. In the assay with RhoA (setting [6]), the “Mean OD (active RhoA)” value came to 0.752 and the “Percent Inhibition vs. Thrombin” value was 46.82%. In the assay with RhoA (setting [7]), the “Mean OD (active RhoA)” value amounted to 0.389 and the “Percent Inhibition vs. Untreated Control” value amounted to 14.52%.
